Several values for one entry are separate records, joined by “and”; a condition that tells them apart may be missing. Identical values can stand only once.
Key:
human α5β1-integrin = target: T1, human α5β1-integrin (Homo sapiens, UniProt P05556+P08648); experiment: ELISA-type solid-phase binding assay: soluble α5β1 competing for immobilized fibronectin; settings: competitive ELISA-type assay, referenced to internal standard cilengitide (L2)
T1 construct: purchased R&D 3230-A5-050
Protocol: Prior to the biological evaluation of the ligands, their specificity and subtype-selective affinity was analyzed by an ELISA (enzyme-linked immune sorbent assay)-type solid-phase ligand binding assay[59] by measuring the competitive binding of soluble purified integrins in the presence of the respective ligands to plate-immobilized purified ECM proteins, as described in Experimental Section: vitronectin (for αvβ3-directed ligands), fibronectin (for α5β1-directed ligands), or the latency-associated peptide (LAP) of transforming growth factor-β (TGF-β) (for αvβ6-directed ligands). Then, we determined whether Cy5.5 conjugation of ligands led to altered ligand binding affinities and integrin subtype selectivity compared to the unlabeled compounds. In the following, we describe in detail the alterations detected.
(3) 2.0 μg/mL mouse-anti-human CD51/61 (BD Biosciences, Franklin Lakes, New Jersey, USA; #555504). (4) 2.0 μg/mL anti-mouse IgG-POD (Sigma-Aldrich, #A9044-2ML). Integrin αvβ6: (1) 0.4 μg/mL LAP (TGF-β) (R&D, #246-LP-025), (2) 0.5 μg/mL human αvβ6 (R&D, #3817-AV-050), (3) 1:500 dilution mouse-anti-human αv (MAB1978) (Merck Millipore, #MAB1978), (4) 2.0 μg/mL anti-mouse IgG-POD (Sigma-Aldrich, #A9044-2ML). Integrin α5β1: (1) 0.5 μg/mL human fibronectin (Sigma-Aldrich, #F0895-1MG), (2) 2.0 μg/mL human α5β1 (R&D, 3230-A5-050), (3) 1.0 μg/mL mouse-anti-human CD49e (BD Biosciences, #555651), (4) 2.0 μg/mL anti-mouse IgG-POD (Sigma-Aldrich, #A9044-2 ML). For Western blot analysis, the following antibodies were used: (p-)p44/42^(erk-1/2) (1) 1:300 dilution of rabbit-anti-human p44/42^(erk-1/2) antibody (Cell Signaling Technology, Frankfurt, Germany, #9102) in 3% (w/v) bovine serum albumin (BSA)/TBS-T, (2) 1:5,000 dilution goat-anti-rabbit horseradish-conjugated secondary antibody in 1% (w/v) BSA/TBS-T. Phospho-p44/42^(erk-1/2): (1) 1:200 dilution rabbit-anti-human p44/42^(erk-1/2) (Thr202/Tyr204) antibody (Cell Signaling Technology, #9101) in 3% (w/v) BSA/TBS-T, (2) 1:5,000 dilution goat-anti-rabbit horseradish-conjugated secondary antibody in 1% (w/v) BSA/TBS-T. FAK: (1) 1:300 dilution mouse-anti-human FAK antibody (Cell Signaling Technology, #9102) in 3% (w/v) BSA/TBS-T, (2) 1:5,000 dilution goat-anti-mouse horseradish-conjugated secondary antibody in 1% (w/v) BSA/TBS-T. Phospho-FAK: (1) 1:300 dilution mouse-anti-human p-FAK antibody (Cell Signaling Technology) in 3% (w/v) BSA/TBS-T, (2) 1:5,000 dilution goat-antimouse horseradish-conjugated secondary antibody in 1% (w/v) BSA/TBS-T. Differences in blotting efficiency and protein loading were normalized by using a primary antibody against glyceraldehyde-3-phosphate dehydrogenase (GAPDH, 1:10,000 dilution in 1% (w/v) BSA/TBS-T, at RT for 45 min (Millipore, Schwalbach, Germany) and a secondary horseradish-conjugated goat-anti-mouse antibody (1:10,000 dilution in 1% (w/v) BSA/TBS-T, 40 min at RT).
The integrin binding assay was done to assess the specificity and subtype-selective affinity of L1–L5 and their respective Cy5.5-conjugated ligands by using isolated and purified integrins in cell-free ligand binding assays, as previously published.[59]Table 2 summarizes the used ECM ligands, integrins, and antibodies. In brief, flat-bottom 96-well plates were coated overnight at 4 °C with the natural ECM integrin ligands, vitronectin (for αvβ3-directed ligands), fibronectin (for α5β1-directed ligands), or LAP of TGF-β1 (for αvβ6-directed ligands) (100 μL/well in buffer containing 15 mM Na2CO3, 35 mM NaHCO3, pH 9.6). Subsequently, each well was washed in PBS, 0.01% (v/v) Tween 20, 137 mM NaCl, 2.7 mM KCl, 10 mM Na2HPO4, 2 mM KH2PO4, pH 7.4 (PBS-T), and blocked for unspecific binding events for 1 h at RT in 20 mM Tris–HCl, pH 7.5, 150 mM NaCl, 1 mM CaCl2, 1 mM MgCl2, 1 mM MnCl2, and 1% (w/v) BSA. Meanwhile, dilution series of the different integrin ligands and the internal standards were prepared, ranging from 20 μM to 256 pM in 1:5 dilution steps. […]

HN cells = experiment: Cell adhesion in the presence of ligand, HN cells; format: cell-based; settings: both concentrations (1 nM, 1 μM), 48 h
Protocol: Figure 10 (A) Effect of integrin ligands on cancer cell migration. […] Microscopical measurements of wound gaps were taken directly after setting the wound scratch and then after 9, 24, 48, and 72 h, respectively. Wound scratch assays were repeated at least three times. The extent of wound gap closure [%]/cell coverage was calculated by a python script utilizing Canny’s Edge Detection algorithm as described under Materials and summarized in the corresponding histograms (see also Scheme S5 in the Supporting Information). (B) Adhesion of M21, OV-MZ-6, and HN cells in the presence of the respective integrin targeting ligand at low (1 nM) and high (1 μM) concentrations. […] Depicted are typical microscopical images of the respective cell monolayers.

human αvβ3-integrin = target: T2, human αvβ3-integrin (Homo sapiens, UniProt P05106+P06756); settings: previously published values; cited from earlier work
T2 construct: purchased R&D 3050-AV-050

HN cells (αvβ6+) = experiment: Time-dependent cellular uptake of Cy5.5-labeled ligands, HN cells; format: cell-based; settings: Cy5.5-labeled ligands, 1 μM
Text: For intracellular drug delivery, integrin ligands designed as drug-conjugated vehicles have to be easily and selectively internalized by tumor cells (over)expressing the respective targeted integrin subtype. […] It should be noted here that HN, OV-MZ-6, and RKO cells also express low αvβ3 expression levels.
Figure 7 Cellular uptake of Cy5.5-labeled integrin ligands. […] Nuclei were costained with Hoechst 33342 (blue signal) and cell membranes with CellMask Green (green signal). Merge of stains (yellow signal) indicated colocalization of ligands at the cell membrane. Scale bar: 50 μm.
Microchamber cell culture slides were coated with fibronectin (2 μg/mL), followed by cell seeding at a density of 50,000 cells/well. After 24 h of cultivation, cells were treated with integrin ligands L1-Cy5.5 to L5-Cy5.5 (1 μM in 0.01% (w/v) CaCl2 and 0.1% (w/v) BSA in PBS; 250 μL/well) for 3, 30, 60, or 300 min at 37 °C. The cells were washed in PBS/0.01% (w/v) CaCl2 (6 × 800 μL) and the fluorescence signal intensity recorded using the LSM 700 microscope (Zeiss, Jena, Germany). CellMask Green Plasma Membrane Stain was used to stain the cell membrane; nuclei were stained with Hoechst 33342.

Row | Compound | IC50 (human α5β1-integrin) | Adhesive phenotype (HN cells) | IC50 (human αvβ3-integrin) [nM] | Cellular uptake, comparison of αvβ6 ligands (HN cells (αvβ6+))
1 | C#CCCC(=O)NCCCOc1ccc(C(=O)N[C@H](CC(=O)O)Cc2ccc(OCCCNc3cc(OC)ccn3)cc2)cc1 [L1, (S)-4-(4-(3-((4-Methoxypyridin-2-yl)amino)propoxy)phenyl)-3-(4-(3-(pent-4-ynamido)propoxy)benzamido)butanoic Acid] | 73.4 ± 16.6 nM | – | – | –
2 | C#CCCC(=O)NCCCOc1cc(C)c(C(=O)N[C@@H](CNC(=O)CNC(=O)c2cccc(NC(=N)N)c2)C(=O)O)c(C)c1 [L5, (S)-2-(2,6-Dimethyl-4-(3-(pent-4-ynamido)propoxy)benzamido)-3-(2-(3-guanidinobenzamido)acetamido)propanoic Acid] | 1.2 nM and 1.24 nM | – | – | –
3 | c(FRGDLAFp(NMe)K) [L3] | – | not changed | > 1000 | better cellular uptake than L4

Reference: article PMC11874007, “Switching Roles—Exploring Concentration-Dependent Agonistic versus Antagonistic Behavior of Integrin Ligands” (Journal of Medicinal Chemistry, 2025)
